From patent US4558049A, “Antipsycotic benzoxazines” (Farmitalia Carlo Erba S.p.A., priority 1982, dated 1985)
Read-outs that look alike come from different tables or passages of the source.

Legend:
[1] = tested on: neuromuscular coordination in the rat; test: Rotarod test (neuromuscular coordination in the rat); type: in vivo; settings: p.o.
[2] = tested on: spontaneous activity in mice; settings: mouse, in vivo, po
[3] = tested on: rats with 6-OHDA induced unilateral lesions of the dopaminergic nigrostriatal pathway; test: Turning-behaviour (antagonism to rotational behaviour by dopaminergic agents in rats with 6-OHDA induced unilateral lesions); type: in vivo; settings: rat, p.o.
[4] = tested on: apomorphine-induced climbing behaviour in mice; test: Apomorphine antagonism in mice (apomorphine-induced climbing behaviour, Protais et al.); type: in vivo; settings: Mus musculus, po
[5] = tested on: catalepsy in rats; test: Catalepsy induction in rats; type: in vivo; settings: rat, p.o.
[6] = mouse, in vivo, po
[7] = tested on: conditioned Avoidance Response in the rat; test: C.A.R. test (interference with conditioned Avoidance Response in the rat); type: in vivo; settings: p.o.
[8] = LD50 / acute toxicity in mice; settings: mouse, in vivo, po, approximate LD50
[9] = tested on: spontaneous activity in mice; test: Reduction of spontaneous activity in mice (Irwin technique); settings: p.o.
[10] = Reduction of body temperature in mice (Irwin technique); settings: p.o.

| SMILES | Min. active dose in Rotarod test [1] | Reduction of spontaneous activity in mice (min. active dose) [2] | Min. active dose in Turning-behaviour [3] | ED50 [4] | Min. active dose in Catalepsy induction [5] | Reduction of body temperature in mice (min. active dose) [6] | Min. active dose in C.A.R. test [7] | LD50 [8] | Reduction of spontaneous activity in mice (min. active dose) [9] | Reduction of body temperature in mice (min. active dose) [10] |
| --- | --- | --- | --- | --- | --- | --- | --- | --- | --- | --- |
| O=C(CCCN1CCC(O)(c2ccc(Cl)cc2)CC1)c1ccc(F)cc1 [Haloperidol, haloperidol, reference compound] | 0.5 mg/kg p.o. | 0.78 mg/kg p.o. | 0.5 mg/kg p.o. | 0.2 mg/kg | 0.5 mg/kg p.o. | 3.12 mg/kg p.o. | 0.5 mg/kg p.o. | ~75 mg/kg |  |  |
| O=C1Nc2ccc([N+](=O)[O-])cc2C2(CCN(CCCC(=O)c3ccc(F)cc3)CC2)O1 [Example 3, 1'-[3-(4-fluorobenzoyl)propyl]spiro-(3,1-benzoxazine-6-nitro-4(2H)4'-piperidin)-2-one] | 50 mg/kg p.o. |  | > 15 mg/kg p.o. | 2.7 mg/kg | 200 mg/kg p.o. |  | 20 mg/kg p.o. | > 800 mg/kg | 15 mg/kg p.o. | 110 mg/kg p.o. |
| O=C1Nc2ccc(Br)cc2C2(CCN(CCCC(=O)c3ccc(F)cc3)CC2)O1 [Example 1, 1'-[3-(4-Fluorobenzoyl)propyl]spiro-(3,1-benzoxazine-6-bromo-4(2H)4'-piperidin)-2-one] | > 50 mg/kg p.o. |  | > 20 mg/kg p.o. | 1.7 mg/kg | > 200 mg/kg p.o. |  | 25 mg/kg p.o. | > 800 mg/kg | 12.5 mg/kg p.o. | 100 mg/kg p.o. |
